Experimental data: patent publication US20260137697A1, “THIAZOLO[5,4-D]PYRIMIDINE COMPOUNDS, COMPOSITIONS COMPRISING THEM AND USES THEREOF” (University de Montreal, priority 2022, published 2026)

Experiments:
[1] = biological target: T1, BRAF (Homo sapiens, UniProt P15056); assay: BRAF kinase activity assay (ADP-Glo); assay type: biochemical; details: Table 3; 10 μM ATP, kinase-dead MEK1 substrate
T1 construct: GST; purchased Millipore Sigma B4062-10UG
Procedure, shortened: (§1)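 ADP-Glo luminescence read after 2 h reactions at 30° C containing 0.375 nM GST-kinase, kinase-dead MEK1 (75 nM), ATP at 10 μM, pH 7.5 HEPES/MgCl2/DTT, 0.05% DMSO. Compounds dosed from 100 to 0.01 nM (nine points); IC50 from variable-slope fit of % inhibition.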

[2] = test system: pERK, HCT116 cells; assay: Phospho-ERK inhibition, AlphaLISA p-ERK 1/2, HCT-116; assay type: cell-based, human; details: Table 3; for IC50: HCT116 cells (KRAS G13D), 1 h treatment; for HCT116 pERK (Ymin %): lowest % inhibition value of the pERK IC50 curve, above −20% = no paradoxical induction
Procedure, shortened: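 Cells in RPMI-1640 with 5% FBS plated overnight, then treated 1 h with ten-point dilutions (10 μM to 0.33 nM, 0.5% DMSO). Lysate p-ERK1/2 (Thr202/Tyr204) read by AlphaLISA SureFire Ultra; % inhibition normalised to DMSO and 1 μM trametinib background, IC50 by four-parameter fit.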

[3] = biological target: T2, CRAF (Homo sapiens, UniProt P04049); assay: CRAF kinase activity assay (ADP-Glo); assay type: biochemical; details: Table 3; 10 μM ATP, kinase-dead MEK1 substrate
T2 construct: fused on or other part: GST tag (N-terminal according to the vendor's product)
T2 sequence (P04049 whole entry Y340E/Y341E, form open, the tested form may be a part): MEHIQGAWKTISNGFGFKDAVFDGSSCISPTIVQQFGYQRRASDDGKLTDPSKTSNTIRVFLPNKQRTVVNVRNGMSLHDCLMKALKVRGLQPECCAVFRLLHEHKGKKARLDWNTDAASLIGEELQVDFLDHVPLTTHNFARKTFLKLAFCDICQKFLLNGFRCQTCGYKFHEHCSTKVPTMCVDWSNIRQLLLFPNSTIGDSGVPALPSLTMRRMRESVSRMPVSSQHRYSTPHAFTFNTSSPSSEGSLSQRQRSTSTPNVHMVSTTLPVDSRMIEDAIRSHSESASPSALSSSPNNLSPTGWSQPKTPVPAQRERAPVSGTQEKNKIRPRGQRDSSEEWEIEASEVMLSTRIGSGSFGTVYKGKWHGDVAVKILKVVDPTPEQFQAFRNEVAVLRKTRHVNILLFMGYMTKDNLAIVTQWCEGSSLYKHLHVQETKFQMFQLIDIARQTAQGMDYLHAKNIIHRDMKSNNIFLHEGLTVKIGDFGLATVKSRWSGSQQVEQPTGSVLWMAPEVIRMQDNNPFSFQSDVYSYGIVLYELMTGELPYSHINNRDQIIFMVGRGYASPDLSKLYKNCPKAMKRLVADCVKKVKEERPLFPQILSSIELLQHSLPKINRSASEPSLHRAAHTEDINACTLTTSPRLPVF
Procedure, shortened: as §1

T1 sequence (P15056 whole entry): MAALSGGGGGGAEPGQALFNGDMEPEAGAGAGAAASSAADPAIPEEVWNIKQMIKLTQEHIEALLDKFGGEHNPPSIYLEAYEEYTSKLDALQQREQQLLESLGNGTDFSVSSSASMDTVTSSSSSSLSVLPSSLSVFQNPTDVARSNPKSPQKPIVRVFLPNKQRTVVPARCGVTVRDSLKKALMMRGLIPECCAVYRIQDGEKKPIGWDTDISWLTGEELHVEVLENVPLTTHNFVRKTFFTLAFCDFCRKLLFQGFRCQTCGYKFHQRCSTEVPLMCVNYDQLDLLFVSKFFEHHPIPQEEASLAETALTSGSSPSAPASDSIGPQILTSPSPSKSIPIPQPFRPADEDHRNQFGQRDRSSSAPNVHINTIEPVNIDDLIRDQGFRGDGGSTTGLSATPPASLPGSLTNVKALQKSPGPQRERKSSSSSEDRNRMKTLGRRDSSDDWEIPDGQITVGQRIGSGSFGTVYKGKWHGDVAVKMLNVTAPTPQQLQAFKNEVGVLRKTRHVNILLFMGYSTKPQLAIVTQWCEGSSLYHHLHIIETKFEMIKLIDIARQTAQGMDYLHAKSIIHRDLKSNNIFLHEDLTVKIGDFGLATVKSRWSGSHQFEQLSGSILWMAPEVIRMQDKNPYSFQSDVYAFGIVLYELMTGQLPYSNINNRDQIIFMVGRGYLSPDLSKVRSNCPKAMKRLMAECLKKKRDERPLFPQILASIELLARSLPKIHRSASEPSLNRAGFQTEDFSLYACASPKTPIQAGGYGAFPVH

| Structure (SMILES) | IC50 [1] | IC50 [2] | IC50 [3] | IC50 ([2]; Homo sapiens, HCT-116) | HCT116 pERK (Ymin %) [2] |
| --- | --- | --- | --- | --- | --- |
| CCC(=O)c1cn(-c2nc3c(Nc4c(F)ccc(NS(=O)(=O)c5cccc(Cl)c5Cl)c4F)ncnc3s2)c2ccccc12 [Example 91] | > 10 nM | – | > 50 nM | 1000 to 10000 nM | – |
| CC(C)C(=O)c1cn(-c2nc3c(Nc4c(F)ccc(NS(=O)(=O)c5cccc(Cl)c5Cl)c4F)ncnc3s2)c2ccccc12 [Example 92] | > 10 nM | – | > 50 nM | 1000 to 10000 nM | – |
| O=C(c1cn(-c2nc3c(Nc4c(F)ccc(NS(=O)(=O)c5cccc(Cl)c5Cl)c4F)ncnc3s2)c2ccccc12)N1CC(O)(C(F)(F)F)C1 [Example 96] | > 10 nM | 500 to 1000 nM | 10 to 50 nM | – | −1% |
| O=C(c1cn(-c2nc3c(Nc4c(F)ccc(NS(=O)(=O)c5cccc(Cl)c5Cl)c4F)ncnc3s2)c2ccccc12)N1CCC(O)(C(F)(F)F)CC1 [Example 97] | > 10 nM | < 500 nM | 10 to 50 nM | – | −10% |
| O=C(c1cn(-c2nc3c(Nc4c(F)ccc(NS(=O)(=O)c5cccc(Cl)c5Cl)c4F)ncnc3s2)c2ccccc12)N1C2CCC1CN(CCO)C2 [Example 98] | 1 to 10 nM | – | < 10 nM | < 500 nM | – |
| COc1cccc2c1ncn2-c1nc2c(Nc3c(F)ccc(NS(=O)(=O)c4cccc(Cl)c4Cl)c3F)ncnc2s1 [Example 99] | 1 to 10 nM | – | < 10 nM | < 500 nM | – |
| O=S(=O)(Nc1ccc(F)c(Nc2ncnc3sc(-n4cnc5c(F)cc(OCCO)cc54)nc23)c1F)c1cccc(Cl)c1Cl [Example 100] | 1 to 10 nM | – | < 10 nM | < 500 nM | – |
| CC(C)(O)C1CCCN1C(=O)c1cn(-c2nc3c(Nc4c(F)ccc(NS(=O)(=O)c5cccc(Cl)c5Cl)c4F)ncnc3s2)c2ccc(F)cc12 (stereo not shown) [Example 101] | > 10 nM | < 500 nM | 10 to 50 nM | – | 0% |
| O=C(c1cn(-c2nc3c(Nc4c(F)ccc(NS(=O)(=O)c5cccc(Cl)c5Cl)c4F)ncnc3s2)c2ccc(F)cc12)N1C2CCC1COC2 [Example 102] | 1 to 10 nM | < 500 nM | < 10 nM | – | 0% |
| Cc1ncn(-c2nc3c(Nc4c(F)ccc(NS(=O)(=O)c5cccc(Cl)c5Cl)c4F)ncnc3s2)c1C [Example 103] | 1 to 10 nM | 500 to 1000 nM | < 10 nM | – | −7% |
| CC(C)(C#N)c1cccc2c1ncn2-c1nc2c(Nc3c(F)ccc(NS(=O)(=O)c4cccc(Cl)c4Cl)c3F)ncnc2s1 [Example 104] | 1 to 10 nM | < 500 nM | 10 to 50 nM | – | −10% |
| COc1nccc2c1ncn2-c1nc2c(Nc3c(F)ccc(NS(=O)(=O)c4cccc(Cl)c4Cl)c3F)ncnc2s1 [Example 105] | 1 to 10 nM | < 500 nM | < 10 nM | – | 4% |
| COCCC(=O)c1cn(-c2nc3c(Nc4c(F)ccc(NS(=O)(=O)c5cccc(Cl)c5Cl)c4F)ncnc3s2)c2ccccc12 [Example 106] | > 10 nM | – | 10 to 50 nM | 500 to 1000 nM | – |
| O=C(c1cccs1)c1cn(-c2nc3c(Nc4c(F)ccc(NS(=O)(=O)c5cccc(Cl)c5Cl)c4F)ncnc3s2)c2ccccc12 [Example 107] | > 10 nM | – | > 50 nM | 1000 to 10000 nM | – |
| CCOc1cccc2c1ccn2-c1nc2c(Nc3c(F)ccc(NS(=O)(=O)c4cccc(Cl)c4Cl)c3F)ncnc2s1 [Example 108] | 1 to 10 nM | < 500 nM | 10 to 50 nM | – | −10% |
| O=S(=O)(Nc1ccc(F)c(Nc2ncnc3sc(-n4cnc(-c5ccccc5)c4)nc23)c1F)c1cccc(Cl)c1Cl [Example 109] | > 10 nM | 500 to 1000 nM | > 50 nM | – | −13% |
| O=C1CCCN1c1cn(-c2nc3c(Nc4c(F)ccc(NS(=O)(=O)c5cccc(Cl)c5Cl)c4F)ncnc3s2)c2ccccc12 [Example 110, 2,3-dichloro-N-[2,4-difluoro-3-[[2-[3-(2-oxopyrrolidin-1-yl)indol-1-yl]thiazolo[5,4-d]pyrimidin-7-yl]amino]phenyl]benzenesulfonamide] | 1 to 10 nM | – | 10 to 50 nM | < 500 nM | – |

More lines, main results first:

| IC50 [1] | IC50 [2] | IC50 [3] | IC50 ([2]; Homo sapiens, HCT-116) | Structure (SMILES) | HCT116 pERK (Ymin %) [2] |
| --- | --- | --- | --- | --- | --- |
| 1 to 10 nM | 500 to 1000 nM | 10 to 50 nM | – | O=C(c1cn(-c2nc3c(Nc4c(F)ccc(NS(=O)(=O)c5cccc(Cl)c5Cl)c4F)ncnc3s2)c2ccc(Cl)cc12)N1C2CCC1COC2 [Example 81] | −8% |
| 1 to 10 nM | 500 to 1000 nM | 10 to 50 nM | – | C[C@@H]1CN(S(=O)(=O)c2cn(-c3nc4c(Nc5c(F)ccc(NS(=O)(=O)c6cccc(Cl)c6Cl)c5F)ncnc4s3)c3ccccc23)C[C@H](C)N1 [Example 82] | −13% |
| 1 to 10 nM | 500 to 1000 nM | 10 to 50 nM | – | CN(CCN1CCOCC1)S(=O)(=O)c1cn(-c2nc3c(Nc4c(F)ccc(NS(=O)(=O)c5cccc(Cl)c5Cl)c4F)ncnc3s2)c2ccccc12 [Example 83] | −10% |
| 1 to 10 nM | < 500 nM | < 10 nM | – | O=C(c1cn(-c2nc3c(Nc4c(F)ccc(NS(=O)(=O)c5cccc(Cl)c5Cl)c4F)ncnc3s2)c2ccccc12)N1CC2CC1CO2 (stereo not shown) [Example 84] | 18% |
| 1 to 10 nM | < 500 nM | < 10 nM | – | CC1(O)CCN(C(=O)c2cn(-c3nc4c(Nc5c(F)ccc(NS(=O)(=O)c6cccc(Cl)c6Cl)c5F)ncnc4s3)c3ccccc23)CC1 [Example 85] | 8% |
| 1 to 10 nM | < 500 nM | < 10 nM | – | O=C(c1cn(-c2nc3c(Nc4c(F)ccc(NS(=O)(=O)c5cccc(Cl)c5Cl)c4F)ncnc3s2)c2ccccc12)N1C2CCC1CC(O)C2 (stereo not shown) [Example 86] | 4% |
| 1 to 10 nM | 500 to 1000 nM | < 10 nM | – | CC(C)(O)C1CN(C(=O)c2cn(-c3nc4c(Nc5c(F)ccc(NS(=O)(=O)c6cccc(Cl)c6Cl)c5F)ncnc4s3)c3ccccc23)C1 [Example 87] | −8% |
| 1 to 10 nM | 1000 to 10000 nM | > 50 nM | – | CC(=O)c1cn(-c2nc3c(Nc4c(F)ccc(NS(=O)(=O)c5cccc(Cl)c5Cl)c4F)ncnc3s2)c2ccccc12 [Example 88] | −8% |
| 1 to 10 nM | < 500 nM | > 50 nM | – | O=C(c1cn(-c2nc3c(Nc4c(F)ccc(NS(=O)(=O)c5cccc(Cl)c5Cl)c4F)ncnc3s2)c2ccccc12)N1CCC2CCCCC2(O)C1 (stereo not shown) [Example 89] | −16% |
| 1 to 10 nM | < 500 nM | < 10 nM | – | CC(C)(O)[C@@H]1CCN(C(=O)c2cn(-c3nc4c(Nc5c(F)ccc(NS(=O)(=O)c6cccc(Cl)c6Cl)c5F)ncnc4s3)c3ccccc23)C1 [Example 90] | −6% |
| < 1 nM | 500 to 1000 nM | < 10 nM | – | O=C(c1cn(-c2nc3c(Nc4c(F)ccc(NS(=O)(=O)c5cccc(Cl)c5Cl)c4F)ncnc3s2)c2cccc(F)c12)N1C2CCC1COC2 [Example 93] | 3% |
| 1 to 10 nM | < 500 nM | < 10 nM | – | CC1(O)CN(C(=O)c2cn(-c3nc4c(Nc5c(F)ccc(NS(=O)(=O)c6cccc(Cl)c6Cl)c5F)ncnc4s3)c3ccccc23)C1 [Example 94] | −10% |
| 1 to 10 nM | < 500 nM | < 10 nM | – | CCC1(O)CN(C(=O)c2cn(-c3nc4c(Nc5c(F)ccc(NS(=O)(=O)c6cccc(Cl)c6Cl)c5F)ncnc4s3)c3ccccc23)C1 [Example 95] | −6% |
